From publication PMC6254164, “Synthesis of Novel Hybrid Molecules from Precursors With Known Antiparasitic Activity” (Molecules, 2009) come the findings set out here.

The term IC50 denotes the point on the concentration scale where inhibition reaches its midpoint.

Like-named read-outs stand apart in the source and are kept apart here.

Data set [1] is described as follows: Solubility in DMSO-aqueous medium (bioassay preparation). It counts as physicochemical. The method, then:
The antiamoebic and antigiardial activities of the prepared hybrid molecules 8, 10-a, 12, their precursors, and 1:1 mixtures of these precursors were tested as described, with some modifications. […] Two milligrams of a test compound or a mixture were dissolved in 10 µL of dimethyl sulfoxide (DMSO) and completed with 1 mL growth medium. […] For each preparation, concentrations of 240, 120, 60, 30, 15, 7.5, 3.5, 1.7, 0.8, 0.4, 0.2, 0.1 µg/mL medium were prepared in a final volume of 15 mL to exclude air from the tube. For the control mixtures of the precursor compounds, 1:1 molar ratios were prepared. […] Each compound or mixture was assayed in duplicate in each of three independent experiments. In each assay, the appropriate controls were performed, including the one without any compound or mixture and another with metronidazole as the positive control. The caps of Entamoeba and Giardia tubes were tightly screwed and wrapped with Parafilm. The tubes were incubated on a 15º horizontal slant at 36-37 °C for 72 hours.

Data set [2] relates to Entamoeba histolytica HK-9 strain. Put plainly: In vitro antiamoebic activity (parasite count, trypan blue). Conditions: 72 hours at 36-37 °C, six determinations, read-out: Mean IC50 ± SD, Entamoeba histolytica. The class given is cell-based. The method, then:
(§1) Entamoeba histolytica HK-9 strain (ATCC number 30015) was cultured in LYI-S-2 medium supplemented with antibiotics. Giardia intestinalis WB strain (ATCC number 30957) was grown in a modified YI-S medium with antibiotics. Both parasites were cultivated in 15-mL screw-capped borosilicate glass tubes containing 13 mL medium. The tubes were incubated on a 15º horizontal slant at (36-37) ºC. Culture maintenance and subculturing was performed as described Entamoeba and Giardia were harvested from confluent cultures by chilling of the tubes on ice for 5-10 min. to detach cells, followed by centrifugation at 800 x g for 5 min.
(§2) Two milligrams of a test compound or a mixture were dissolved in 10 µL of dimethyl sulfoxide (DMSO) and completed with 1 mL growth medium. The solutions were filter sterilized using 0.22 µm syringe filters and the appropriate volumes of the solutions were taken to prepare the concentrations of each compound or reference drug in 15-mL screw-capped borosilicate glass tubes. […] For the control mixtures of the precursor compounds, 1:1 molar ratios were prepared. Each tube was inoculated with 20,000 cells of the parasite under testing (Entamoeba or Giardia). Each compound or mixture was assayed in duplicate in each of three independent experiments. In each assay, the appropriate controls were performed, including the one without any compound or mixture and another with metronidazole as the positive control. The caps of Entamoeba and Giardia tubes were tightly screwed and wrapped with Parafilm. The tubes were incubated on a 15º horizontal slant at 36-37 °C for 72 hours.
(§3) The parasites in each tube were counted using the standard hemacytometer at the 10X objective. In each count, trypan blue was employed to distinguish live from dead parasites. To permit detachment of Entamoeba and Giardia, the tubes were placed on ice for few minutes and the parasites were then centrifuged at 1000 x g for 10 min. The supernatant was discarded and 1 mL fresh medium was added to each tube. The final suspension was prepared by mixing 25 µL of the parasite suspension in each tube with 100 µL of 0.4 % trypan blue in phosphate buffered saline (PBS). The 50% inhibitory concentration (IC50) was employed as a parameter for biological activity. The IC50 is the concentration of compounds which cuts the number of parasites to half that in the negative control (growth medium + DMSO + parasites).

In data set [3] the test system is Giardia intestinalis WB strain. Put plainly: In vitro antigiardial activity (parasite count, trypan blue). The class given is cell-based. As to conditions: 72 hours at 36-37 °C, six determinations, read-out: Mean IC50 ± SD, Giardia intestinalis. The method, then:
as §1, §2, §3

Data set [4] relates to Vero cells. Put plainly: Cytotoxicity assay, trypan blue exclusion. The class given is cell-based. Conditions: 48 hour incubation, six determinations, read-out: Mean IC50 ± SD, Vero cells. The method, then: (§4) The cytotoxicity of the hybrid compounds and the reference drug, metronidazole, was investigated on Hep-2 and Vero cells using the standard cytotoxicity assay and the trypan blue exclusion method. A cell suspension (10^5 cells/mL RPMI medium-10% inactivated foetal calf serum) was prepared from confluent cultures and 100 µL portions of the suspension were added to the wells of 96-well plates. The cells were incubated for 24 h at 37 °C and 5 % CO2 and the medium in each well was then replaced with fresh 150 µL medium. Solutions of the compounds or the reference drug were prepared and sterilized as described in “Antiamoebic and antigiardial activity” section above. Then, 150 µL-two fold serial dilutions of each of the compounds and the reference drug starting at a concentration of 2000 µg/mL in culture medium were prepared in the plates. After 48 hour incubation at 37 °C and 5 % CO2, the number of cells in each well was determined as follows: The medium in each well was gently replaced with 100 µL of 0.25% (w/v) trypsin-0.53 mM EDTA solution and the plates were incubated for 5 min. at 37 °C to allow cell detachment. Two-hundred microliters of trypan blue solution were added to each well and the plates were, then, placed on ice. The cells were counted in a hemacytometer at the 10X objective. Each compound was assayed in duplicate in each of three independent experiments. In each assay the negative controls (without any compound or reference drug) were included in duplicates.

The test system of data set [5] is Hep-2 cells. Put plainly: cells. It counts as cell-based. As to conditions: for IC50: 48 hour incubation, six determinations, read-out: Mean IC50 ± SD, Hep-2 cells. As for the experimental part:
as §4

With `O=C(/C=C\c1ccc([N+](=O)[O-])o1)N1CCN(c2ccnc3cc(Cl)ccc23)CC1` [Compound 10-b], the “solubility in DMSO-aqueous medium” value in data set [1] is on record as “insolubility”.

Regarding `O=C(O)/C=C/c1ccc([N+](=O)[O-])o1` [Compound 7, 5-Nitro-2-furylacrilic acid, reference compound], the IC50 in data set [2] (Entamoeba histolytica, 72 h) came to 94.3 ± 9.76 µM; in data set [3] (Giardia duodenalis, 72 h), 88.4 ± 7.1 µM.

As to `Clc1ccc2c(N3CCNCC3)ccnc2c1` [Compound 9, 7-Chloro-4-(piperazine-1-yl) quinoline, reference compound], the IC50 in data set [2] (Entamoeba histolytica, 72 h) came out at 55.7 ± 5 µM; in data set [3] (Giardia duodenalis, 72 h), 67.5 ± 8.67 µM.

On to `Cc1ncc([N+](=O)[O-])n1CCO` [Metronidazole, metronidazole, reference compound], for which the IC50 in data set [2] (Entamoeba histolytica, 72 h) stood at 5.2 ± 1.03 µM; in data set [4] (Chlorocebus sabaeus, Vero), 1500 ± 17.8 µM; in data set [3] (Giardia duodenalis, 72 h), 5.7 ± 0.78 µM; in data set [5] (Homo sapiens, HEp-2), 1460 ± 18.3 µM. In addition, the “IC50 ratio, Hep-2 and Vero cells versus the tested parasites” value in data set [5] (IC50 against Hep-2 and Vero cells over IC50 against Entamoeba and Giardia) was “around 270 times”.

For `Cc1ncc([N+](=O)[O-])n1CCN` [Compound 6, 2-(2-Methyl-5-1H-nitroimidazolyl)ethylamine, reference compound], the IC50 in data set [2] (Entamoeba histolytica, 72 h) came out at 18.2 ± 2.28 µM; in data set [3] (Giardia duodenalis, 72 h), 18.5 ± 1.43 µM.

As to `O=C(/C=C/c1ccc([N+](=O)[O-])o1)N1CCN(c2ccnc3cc(Cl)ccc23)CC1` [Compound 10-a], the IC50 in data set [2] is 140 ± 6.37 µM; in data set [2] (Entamoeba histolytica, 72 h) it was around 140 µM; in data set [4] (Chlorocebus sabaeus, Vero), 593 ± 8.71 µM; in data set [3] it was 145 ± 5.37 µM; in data set [3] (Giardia duodenalis, 72 h), around 140 µM; in data set [5] (Homo sapiens, HEp-2), 574 ± 7.77 µM. In data set [5] (Hep-2 and Vero cells), the “cytotoxicity at the lethal concentrations against the parasites” value was “non-cytotoxic”.

Take “3-(5-nitrofuran-2-yl)-N-[2-(5-nitroimidazol-1-yl)ethyl]acrylamide [Compound 8]”: the IC50 in data set [2] is 5.32 ± 0.21 µM; in data set [4], 90.5 ± 7.83 µM; in data set [3] it was 5.56 ± 0.37 µM; in data set [5], 108 ± 8.02 µM.
